# Measurements taken from article PMC8509773, “3-Pyridinylidene Derivatives of Chemically Modified Lupane and Ursane Triterpenes as Promising Anticancer Agents by Targeting Apoptosis” (International Journal of Molecular Sciences, 2021).
# Legend:
# Assay in all cases: NCI-60 SRB screening (one-dose and five-dose)
# Assay type in all cases: cell-based, human
# 786-0 = settings: 48 h; for Growth Percent: 786-0, 10 μM
# Procedure: (§1) The compounds were added at a single concentration and the cell cultures were incubated for 48 h. The end point determinations were made with a protein binding dye, sulforhodamine B (SRB). […] The percentage of growth was evaluated spectrophotometrically versus controls not treated with test agents after 48-h exposure and using SRB protein assay to estimate cell viability or growth. […] Furthermore, mean graph midpoints (MG_MID) were calculated for each of the parameters, giving an average activity parameter over all cell lines for the tested compound. For the MG_MID calculation, insensitive cell lines were included with the highest concentration tested.
# A549/ATCC = settings: 48 h; for Growth Percent: 10 μM
# Procedure: as §1
# ACHN = settings: 48 h; for Growth Percent: 10 μM
# Procedure: as §1
# BT-549 = settings: 48 h
# Procedure: as §1
# CAKI-1 = settings: 48 h; for Growth Percent: CAKI-1, 10 μM
# Procedure: as §1
# CCRF-CEM = settings: 48 h; for Growth Percent: 10 μM
# Procedure: as §1
# DU-145 = settings: 48 h; for Growth Percent: DU-145, 10 μM
# Procedure: as §1
# HCC-2998 = settings: 48 h; for Growth Percent: HCC-2998, 10 μM
# Procedure: as §1
# HCT-116 = settings: 48 h; for Growth Percent: HCT-116, 10 μM
# Procedure: as §1
# HCT-15 = settings: 48 h; for Growth Percent: HCT-15, 10 μM
# Procedure: as §1
# HL-60(TB) = settings: 48 h
# Procedure: as §1
# HOP-62 = settings: 48 h; for Growth Percent: HOP-62, 10 μM
# Procedure: as §1
# HS 578T = settings: 48 h; for Growth Percent: 10 μM
# Procedure: as §1
# HT29 = settings: 48 h; for Growth Percent: HT29, 10 μM
# Procedure: as §1
# K-562 = settings: 48 h
# Procedure: as §1
# KM-12 = settings: 48 h; for Growth Percent: KM-12, 10 μM
# Procedure: as §1
# MALME-3M = settings: 48 h; for Growth Percent: 10 μM
# Procedure: as §1
# MCF7 = settings: 48 h; for Growth Percent: MCF7, 10 μM
# Procedure: as §1
# MDA-MB-231/ATCC = settings: 48 h; for Growth Percent: 10 μM
# Procedure: as §1
# MDA-MB-435 = settings: 48 h; for Growth Percent: MDA-MB-435, 10 μM
# Procedure: as §1
# MDA-MB-468 = settings: 48 h; for Growth Percent: MDA-MB-468, 10 μM
# Procedure: as §1
# NCI-H226 = settings: 48 h; for Growth Percent: NCI-H226, 10 μM
# Procedure: as §1
# NCI-H460 = settings: 48 h; for Growth Percent: NCI-H460, 10 μM
# Procedure: as §1
# NCI-H522 = settings: 48 h
# Procedure: as §1
# NCI/ADR-RES = settings: 48 h; for Growth Percent: 10 μM
# Procedure: as §1
# OVCAR-4 = settings: 48 h; for Growth Percent: OVCAR-4, 10 μM
# Procedure: as §1
# OVCAR-5 = settings: 48 h; for Growth Percent: OVCAR-5, 10 μM
# Procedure: as §1
# PC-3 = settings: 48 h; for Growth Percent: PC-3, 10 μM
# Procedure: as §1
# SF-268 = settings: 48 h; for Growth Percent: SF-268, 10 μM
# Procedure: as §1
# SF-295 = settings: 48 h; for Growth Percent: SF-295, 10 μM
# Procedure: as §1
# SF-539 = settings: 48 h; for Growth Percent: SF-539, 10 μM
# Procedure: as §1
# SK-MEL-28 = settings: 48 h; for Growth Percent: SK-MEL-28, 10 μM
# Procedure: as §1
# SK-MEL-5 = settings: 48 h; for Growth Percent: SK-MEL-5, 10 μM
# Procedure: as §1
# SN12C = settings: 48 h; for Growth Percent: 10 μM
# Procedure: as §1
# SNB-19 = settings: 48 h; for Growth Percent: SNB-19, 10 μM
# Procedure: as §1
# SW-620 = settings: 48 h; for Growth Percent: SW-620, 10 μM
# Procedure: as §1
# T-47D = settings: 48 h; for Growth Percent: T-47D, 10 μM
# Procedure: as §1
# UACC-257 = settings: 48 h; for Growth Percent: UACC-257, 10 μM
# Procedure: as §1
# NCI-H322M = settings: 10 μM, 48 h
# Procedure: as §1
# TK-10 = settings: TK-10, 10 μM, 48 h
# Procedure: as §1
# [1] = Homo sapiens, five dose 0.01–100 μM
smiles,measurement,setting,value
"COc1cccc2c1C(=O)c1c(O)c3c(c(O)c1C2=O)C[C@@](O)(C(=O)CO)C[C@@H]3O[C@H]1C[C@H](N)[C@H](O)[C@H](C)O1 [Doxorubicin, reference compound]",GI50,"786-0; Homo sapiens, 786-0, five dose 0.01–100 μM",0.13 µM
same,GI50,A549/ATCC; [1],0.06 µM
same,GI50,ACHN; [1],0.08 µM
same,GI50,"BT-549; Homo sapiens, BT-549, five dose 0.01–100 μM",0.23 µM
same,GI50,"CAKI-1; Homo sapiens, CAKI-1, five dose 0.01–100 μM",0.95 µM
same,GI50,CCRF-CEM; [1],0.08 µM
same,GI50,"DU-145; Homo sapiens, DU-145, five dose 0.01–100 μM",0.11 µM
same,GI50,"HCC-2998; Homo sapiens, HCC-2998, five dose 0.01–100 μM",0.26 µM
same,GI50,"HCT-116; Homo sapiens, HCT-116, five dose 0.01–100 μM",0.08 µM
same,GI50,"HCT-15; Homo sapiens, HCT-15, five dose 0.01–100 μM",6.46 µM
same,GI50,HL-60(TB); [1],0.12 µM
same,GI50,"HOP-62; Homo sapiens, HOP-62, five dose 0.01–100 μM",0.07 µM
same,GI50,HS 578T; [1],0.33 µM
same,GI50,"HT29; Homo sapiens, HT-29, HT29, five dose 0.01–100 μM",0.12 µM
same,GI50,"K-562; Homo sapiens, K562, K-562, five dose 0.01–100 μM",0.19 µM
same,GI50,"KM-12; Homo sapiens, KM12, KM-12, five dose 0.01–100 μM",0.27 µM
same,GI50,MALME-3M; [1],0.12 µM
same,GI50,"MCF7; Homo sapiens, MCF7, five dose 0.01–100 μM",0.03 µM
same,GI50,MDA-MB-231/ATCC; [1],0.51 µM
same,GI50,"MDA-MB-435; Homo sapiens, MDA-MB-435, MDA-B-435, five dose 0.01–100 μM",0.25 µM
same,GI50,"MDA-MB-468; Homo sapiens, MDA-MB-468, five dose 0.01–100 μM",0.05 µM
same,GI50,"NCI-H226; Homo sapiens, NCI-H226, five dose 0.01–100 μM",0.05 µM
same,GI50,"NCI-H460; Homo sapiens, NCI-H460, five dose 0.01–100 μM",0.02 µM
same,GI50,"NCI-H522; Homo sapiens, NCI-H522, five dose 0.01–100 μM",0.03 µM
same,GI50,NCI/ADR-RES; [1],7.16 µM
same,GI50,"OVCAR-4; Homo sapiens, OVCAR-4, five dose 0.01–100 μM",0.37 µM
same,GI50,"OVCAR-5; Homo sapiens, OVCAR-5, five dose 0.01–100 μM",0.41 µM
same,GI50,"PC-3; Homo sapiens, PC-3, five dose 0.01–100 μM",0.32 µM
same,GI50,"SF-268; Homo sapiens, SF-268, five dose 0.01–100 μM",0.1 µM
same,GI50,"SF-295; Homo sapiens, SF-295, five dose 0.01–100 μM",0.1 µM
same,GI50,"SF-539; Homo sapiens, SF-539, five dose 0.01–100 μM",0.12 µM
same,GI50,"SK-MEL-28; Homo sapiens, SK-MEL-28, five dose 0.01–100 μM",0.21 µM
same,GI50,"SK-MEL-5; Homo sapiens, SK-MEL-5, five dose 0.01–100 μM",0.08 µM
same,GI50,SN12C; [1],0.07 µM
same,GI50,"SNB-19; Homo sapiens, SNB-19, five dose 0.01–100 μM",0.04 µM
same,GI50,"SW-620; Homo sapiens, SW-620, five dose 0.01–100 μM",0.09 µM
same,GI50,"T-47D; Homo sapiens, T47D, T -47D, five dose 0.01–100 μM",0.06 µM
same,GI50,"UACC-257; Homo sapiens, UACC-257, five dose 0.01–100 μM",0.14 µM
"C[C@H]1[C@@H]2[C@H]3CC[C@@H]4[C@@]5(C)CC[C@H](O)C(C)(C)[C@@H]5CC[C@@]4(C)[C@]3(C)CC[C@]23CO[C@@]1(C)[C@@H](C(=O)/C=C/c1ccco1)C3 [Compound 5, 3β-Hydroxy-21-[3-(2E-furyl)-prop-2-en-1-one]-20β,28-epoxy-18α,19βH-ursane]",Growth Percent,786-0,103.94%
same,Growth Percent,A549/ATCC,103.89%
same,Growth Percent,ACHN,44.33%
same,Growth Percent,"BT-549; BT-549, 10 μM",104.50%
same,Growth Percent,CAKI-1,55.81%
same,Growth Percent,CCRF-CEM,100.63%
same,Growth Percent,DU-145,102.22%
same,Growth Percent,HCC-2998,104.00%
same,Growth Percent,HCT-116,100.13%
same,Growth Percent,HCT-15,105.61%
same,Growth Percent,HOP-62,104.25%
same,Growth Percent,HS 578T,95.83%
same,Growth Percent,HT29,98.06%
same,Growth Percent,KM-12,99.96%
same,Growth Percent,MALME-3M,−11.31%
same,Growth Percent,MCF7,101.23%
same,Growth Percent,MDA-MB-231/ATCC,82.90%
same,Growth Percent,MDA-MB-435,17.83%
same,Growth Percent,MDA-MB-468,19.35%
same,Growth Percent,NCI-H226,99.66%
same,Growth Percent,NCI-H322M,88.29%
same,Growth Percent,NCI-H460,109.09%
same,Growth Percent,"NCI-H522; NCI-H522, 10 μM",87.83%
same,Growth Percent,NCI/ADR-RES,95.25%
same,Growth Percent,OVCAR-4,111.19%
same,Growth Percent,OVCAR-5,102.21%
same,Growth Percent,PC-3,92.69%
same,Growth Percent,SF-268,96.31%
same,Growth Percent,SF-295,109.70%
same,Growth Percent,SF-539,99.66%
same,Growth Percent,SK-MEL-28,36.66%
same,Growth Percent,SK-MEL-5,8.55%
same,Growth Percent,SN12C,100.53%
same,Growth Percent,SNB-19,75.34%
same,Growth Percent,SW-620,97.06%
same,Growth Percent,T-47D,84.80%
same,Growth Percent,TK-10,97.40%
same,Growth Percent,UACC-257,−8.91%
"CC(=O)[C@H]1C[C@]23CC[C@]4(C)[C@H](CC[C@@H]5[C@@]6(C)CCC(=O)C(C)(C)[C@@H]6CC[C@]54C)[C@H]2[C@H](C)[C@@]1(C)OC3 [Compound 2, 3-oxo-21β-acetyl-20β,28-epoxy-18α,19βH-ursane]",Growth Percent,786-0,89.64%
same,Growth Percent,A549/ATCC,93.03%
same,Growth Percent,ACHN,99.80%
same,Growth Percent,CAKI-1,66.38%
same,Growth Percent,CCRF-CEM,104.98%
same,Growth Percent,DU-145,98.96%
same,Growth Percent,HCC-2998,109.84%
same,Growth Percent,HCT-116,100.51%
same,Growth Percent,HCT-15,111.38%
same,Growth Percent,HL-60(TB); 10 μM,133.26%
same,Growth Percent,HOP-62,80.72%
same,Growth Percent,HS 578T,103.91%
same,Growth Percent,HT29,108.96%
same,Growth Percent,"K-562; K-562, 10 μM",103.93%
same,Growth Percent,KM-12,102.54%
same,Growth Percent,MALME-3M,109.60%
same,Growth Percent,MCF7,90.80%
same,Growth Percent,MDA-MB-231/ATCC,85.22%
same,Growth Percent,MDA-MB-435,100.67%
same,Growth Percent,MDA-MB-468,108.53%
same,Growth Percent,NCI-H226,95.16%
same,Growth Percent,NCI-H322M,106.71%
same,Growth Percent,NCI-H460,94.87%
same,Growth Percent,NCI/ADR-RES,102.89%
same,Growth Percent,OVCAR-4,85.13%
same,Growth Percent,OVCAR-5,96.55%
same,Growth Percent,PC-3,87.23%
same,Growth Percent,SF-268,90.95%
same,Growth Percent,SF-295,99.35%
same,Growth Percent,SF-539,95.15%
same,Growth Percent,SK-MEL-28,109.33%
same,Growth Percent,SK-MEL-5,100.12%
same,Growth Percent,SN12C,87.69%
same,Growth Percent,SNB-19,98.03%
same,Growth Percent,SW-620,95.81%
same,Growth Percent,T-47D,106.29%
same,Growth Percent,TK-10,76.40%
same,Growth Percent,UACC-257,103.91%
